We go through 17 compounds from PubChem BioAssay AID686962 (Sanford-Burnham Center for Chemical Genomics, 2013).

Structures are written as SMILES. Active and inactive are the calls of the source.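 How the source made its calls: active means IC50 at or below 20 µM in the dose response confirmation; inactive means the rest.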 Bounds are passed on as bounds.

This assay deals with Low molecular weight phosphotyrosine protein phosphatase (Homo sapiens) (UniProt P24666). The assay is described as follows: inhibition of human LMPTP-A enzyme – biochemical, fluorescence intensity, SAR follow-up (AID 686962). To be noted: recombinant LMPTP-A, OMFP fluorogenic substrate, 50 min.
Sequence of Low molecular weight phosphotyrosine protein phosphatase (Homo sapiens) (P24666 whole entry, looked up): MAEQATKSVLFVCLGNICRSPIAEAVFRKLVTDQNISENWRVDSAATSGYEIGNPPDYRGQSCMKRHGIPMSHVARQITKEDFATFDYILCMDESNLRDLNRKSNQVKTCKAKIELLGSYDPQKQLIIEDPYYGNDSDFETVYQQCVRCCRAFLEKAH
By IC50 is commonly meant the concentration that gives 50% inhibition. Turning to `COc1ccccc1CNc1ncnc2ccsc12`, the IC50 is > 80 µM (inactive).

As to `Cc1ccc(-c2nc(NCCN3CCOCC3)c3ccccc3n2)cc1`, the IC50 was 18.8 µM. For `Fc1ccccc1-c1nc(NC2CCCC2)c2ccccc2n1` the value was 10.6 µM; for `CC(C)OCCCNc1nc(-c2ccccc2)nc2ccccc12`, 18.1 µM; for `Cc1ccc(-c2nc(NCc3cccnc3)c3ccccc3n2)cc1`, 12.9 µM.

On to `Cc1c(CCC(=O)O)c(=O)oc2c(C)c(OCc3ccccc3Cl)ccc12`, for which the IC50 is 7.41 µM.

For `Cc1cccc(-c2nc(NCCCN3CCOCC3)c3ccccc3n2)c1`, the IC50 was 13.5 µM. With `Clc1cccc(Cl)c1Cn1cnc(=NCc2ccco2)c2[nH]cnc21`, the IC50 was 10.2 µM. For the compound `Nc1nc(N)c(Cc2ccc(Cl)cc2Cl)c(N)n1`, the IC50 is 11.5 µM.

Turning to `c1ccc(-c2nc(NCCCn3ccnc3)c3ccccc3n2)cc1`, the 50% inhibitory concentration (IC50) was 17.8 µM. `Fc1ccccc1-c1nc(NCCCN2CCOCC2)c2ccccc2n1`: the IC50 entry is “inactive”.

With `CCc1nc(N)nc(N)c1-c1ccc(Cl)cc1`, the IC50 was 14.7 µM. With `O=C(OCCNc1nc(-c2ccccc2)nc2ccccc12)c1cccnc1` the entry was “inactive”. As for `c1ccc(-c2cc(N3CCCCC3)c3ccccc3n2)cc1`, the IC50 is 11.1 µM.

With `O=C(OCCNc1nc(-c2ccccc2)nc2ccccc12)c1ccncc1`, the IC50 entry was “inactive”. Turning to `c1ccc(-c2nc(NCc3cccnc3)c3ccccc3n2)cc1`, the IC50 is 19 µM. With `c1ccc(-c2cc(NCCN3CCCCC3)c3ccccc3n2)cc1` the figure was 2.86 µM.
